# Reference: article PMC11231610, “Fatty acid binding to the human transport proteins FABP3, FABP4, and FABP5 from a Ligand’s perspective” (The Journal of Biological Chemistry, 2024)
# “And” between values parts separate entries of the source, which are not always exact repeats. Equal entries are not always repeated. Where two headings read alike, the source gives them in different places.
# How the values were obtained:
# Format in all cases: binding
# FABP3 = target: T1, FABP3 (Homo sapiens, UniProt P05413); test: CW EPR spectra and spectral simulations of spin-probed fatty acids with FABP3; details: for increase of intermediately bound component: FABPx/16-DSA 20/20 μM
# T1 construct: purchased Sigma Aldrich
# Protocol: (§1) For a more in-depth view of the binding mechanism, CW EPR spectra of 5/16-DSA with concentration series of the FABPs were measured and simulated. […] Equal concentrations of 20 μM of each spin probe (5- and 16-DSA) were mixed with FABP concentrations of 0 to 200 μM, increasing the resulting ligand/protein ratio in the samples stepwise from 1/0 to 1/10.
# (§2) To analyze the spectra quantitatively, subsequent EPR spectral simulations were performed (Fig. 2, B and C). […] For a better understanding, a first interpretation of these components is given at this point. The rotational dynamics are thought to be indirectly proportional to the strength of intermolecular interactions between fatty acid and FABP. Therefore, they are indicative of the binding state of the fatty acids. Higher rotational correlation times signalize lower ligand dynamics and stronger interactions with the protein. […] This exchange broadening can only occur if radicals are located very close distance each other, colliding with each other, leading to partial overlap of spin-bearing orbitals.
# (§3) The fractions (weights) Φx of the spectral components were extracted from the EPR simulations of the concentration series and were used to calculate the concentrations of all components with Eq (1). in Figure 3. This was performed for the intermediately and strongly bound components, as well as for their sum, called totally bound 5/16-DSA, to construct binding curves for all FABPs and spin probes. […] Different fit functions were applied to the curves for a better qualitative and quantitative analysis.
# FABP5 [1] = target: T2, FABP5 (Homo sapiens, UniProt Q01469); test: DHA displacement of 16-DSA from FABP5 by CW EPR; details: FABP5/16-DSA/DHA 20/20/0, before DHA addition
# T2 construct: purchased Sigma Aldrich
# Description: In a second addition during revision, we were curious about the question of whether our model ligands that bind with medium affinity to the FABP binding pocket will be displaced when we add a native ligand with higher affinity and whether we could detect this displacement with our CW EPR setup. The native ligand DHA was chosen for this displacement analysis since it is well-known to bind with high affinity to FABP5 ([26]). DHA was pre-dissolved in ethanol, diluted into buffer, and mixed with FABP5 and 16-DSA. […] Samples with FABP5/16-DSA/DHA ratios 20/20/0, 20/20/5, 20/20/10, 20/20/20, 20/20/50, and 20/20/100 were prepared with 5 min incubation time in between 16-DSA and DHA addition. […] We assume that the well-known high binding affinity of DHA refers to the state of strong binding within the pocket. […] Instead, a dynamic exchange of ligands seems to occur, as we consistently observe it with albumins from different species. However, this part opens the way to other future competitive binding assays via CW EPR spectroscopy, e.g., with pharmaceuticals that bind to FABPs.
# CW EPR spectroscopic measurements were performed at X-band frequencies (∼9.4 GHz) with a benchtop spectrometer Magnettech MS-5000 (Freiberg Instruments GmbH, now Bruker Biospin). The samples were prepared in low-binding PCR tubes (250 μl). Protein and 5/16-DSA solutions were mixed with HEPES/NaCl buffer at pH 7.5, to obtain samples with a constant 5/16-DSA concentration of 20 μM and varying FABP concentrations of 200, 100, 50, 35, 25, 20, 15, 10 and 5 μM. After an incubation time of 20 min, the samples were transferred into glass capillaries, which were sealed with ‘Critoseal’. At first, solutions with 20 μM of 5/16-DSA were measured as references at 37 °C. The concentration series of FABP with 20 μM 5/16-DSA were measured at 37 °C, directly after preparation. Afterward, the sample capillaries were stored at 4 °C, and subsequent temperature-dependent measurements were performed. […]
# FABP5 [2] = target: T2, FABP5; test: CW EPR spectra and spectral simulations of spin-probed fatty acids with FABP5; details: for increase of intermediately bound component: FABPx/16-DSA 20/20 μM
# Protocol: as §1, §2, §3
# FABP4 = target: T3, FABP4 (Homo sapiens, UniProt P15090); test: CW EPR spectra and spectral simulations of spin-probed fatty acids with FABP4
# T3 construct: purchased Sigma Aldrich
# Protocol: as §1, §2, §3
# [3] = 37 °C, 20 μM spin probe, EPR binding curve, read-out: KD,T,75′ (fit), apparent KD read at 75% totally bound
# [4] = FABP3/16-DSA 100/100 μM/μM, 37 °C
# [5] = changing the buffer from HEPES to TRIS, pH 7.5
# [6] = lowering the pH from 7.5 to 6 in HEPES/NaCl
# [7] = Hill fit, totally bound (T), y = bound 5/16-DSA
# [8] = read-out: KD,T,50′ (fit), apparent KD read at 50% totally bound, 37 °C, 20 μM spin probe, EPR binding curve
# [9] = FABP5/16-DSA 100/100 μM/μM, 37 °C
# [10] = Hill fit of EPR binding curve, totally bound, 37 °C
# T2 sequence (Q01469 whole entry): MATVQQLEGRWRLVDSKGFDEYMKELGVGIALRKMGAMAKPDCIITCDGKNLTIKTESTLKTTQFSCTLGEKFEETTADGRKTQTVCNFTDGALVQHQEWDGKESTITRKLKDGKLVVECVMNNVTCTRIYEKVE
# T1 sequence (P05413 whole entry): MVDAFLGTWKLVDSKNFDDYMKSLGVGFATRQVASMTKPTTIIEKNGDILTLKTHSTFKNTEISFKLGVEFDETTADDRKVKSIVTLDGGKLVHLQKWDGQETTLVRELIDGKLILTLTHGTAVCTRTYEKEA
# T3 sequence (P15090 whole entry): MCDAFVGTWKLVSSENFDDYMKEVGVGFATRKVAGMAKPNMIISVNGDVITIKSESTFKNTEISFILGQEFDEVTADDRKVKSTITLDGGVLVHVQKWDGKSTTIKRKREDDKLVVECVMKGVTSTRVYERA
smiles,measurement,setting,value
"CCC1(CCCCCCCCCCCCCCC(=O)O)OCC(C)(C)N1[O] (stereo not drawn) [16-DSA, 16-DOXYL stearic acid]",Kd,"FABP3; 37 °C, 20 μM FABP3, 20 μM spin probe, read-out: KD,T,20μM (calculated, totally bound)",1.08 ± 0.55 µM
same,Kd,FABP3; [3],18 ± 0.2 µM
same,Kd,"FABP3; 37 °C, 50 μM FABP3, 20 μM spin probe, read-out: KD,T,50μM (calculated, totally bound)",0.81 µM
same,"ΔGF−I,100μM (free to intermediately bound)","FABP3; 37 °C, 100 μM FABP3",-8.05 ± 0.598 kcal/mol
same,"ΔGF−S,100μM (free to strongly bound)","FABP3; 37 °C, 100 μM FABP3",-3.13 ± 0.024 kcal/mol
same,"ΔGF−T,100μM (free to totally bound)","FABP3; 37 °C, 100 μM FABP3",-8.96 ± 1.29 kcal/mol
same,"ΔGI−S,100μM (intermediately to strongly bound)","FABP3; 37 °C, 100 μM FABP3",2.53 ± 0.048 kcal/mol
same,Kd,"FABP3; 37 °C, 100 μM FABP3, 20 μM spin probe, read-out: KD,T,100μM (calculated, totally bound)",0.48 µM
same,"aiso, component (1) free","FABP3; 37 °C, EPR simulation",44.1 MHz
same,"aiso, component (2) intermediately bound","FABP3; 37 °C, EPR simulation",41.6–42.6 MHz
same,"aiso, component (3) strongly bound","FABP3; 37 °C, EPR simulation",38.7 MHz
same,"τc,iso, component (1) free","FABP3; 37 °C, EPR simulation",0.04–0.1 ns
same,"τc,iso, component (2) intermediately bound","FABP3; 37 °C, EPR simulation",5.2–8.4 ns
same,"τc,iso, component (3) strongly bound","FABP3; 37 °C, EPR simulation",19.1–22.2 ns
same,intermediately bound proportion,"FABP3; FABP3/16-DSA 10/10 μM/μM, 37 °C",67.1%
same,intermediately bound proportion,"FABP3; FABP3/16-DSA 20/20 μM/μM, 37 °C",72.6%
same,intermediately bound proportion,"FABP3; FABP3/16-DSA 50/50 μM/μM, 37 °C",85.9%
same,intermediately bound proportion,FABP3; [4],90.3%
same,strongly bound component,FABP3; [4],2.8%
same,increase of intermediately bound component,FABP3; [5],6 to 8%
same,increase of intermediately bound component,FABP3; [6],16 to 18%
same,Hill fit k,"FABP3; Hill fit, totally bound (T), x = c(FABP3)/c(5/16-DSA)",0.535 ± 0.005
same,Hill fit Vmax,FABP3; [7],100.399 ± 0.459
same,Kd,FABP3; [8],10.6 ± 0.1 µM
same,bound 16-DSA,FABP5 [1],72%
same,Kd,"FABP5 [2]; 37 °C, 20 μM FABP5, 20 μM spin probe, read-out: KD,T,20μM (calculated, totally bound)",2.14 ± 0.7 µM
same,Kd,FABP5 [2]; [3],22 ± 0.2 µM
same,Kd,"FABP5 [2]; 37 °C, 50 μM FABP5, 20 μM spin probe, read-out: KD,T,50μM (calculated, totally bound)",5.87 ± 1.21 µM
same,"ΔGF−I,100μM (free to intermediately bound)","FABP5 [2]; 37 °C, 100 μM FABP5",-6.38 ± 0.072 kcal/mol
same,"ΔGF−S,100μM (free to strongly bound)","FABP5 [2]; 37 °C, 100 μM FABP5",-4.64 ± 0.024 kcal/mol
same,"ΔGF−T,100μM (free to totally bound)","FABP5 [2]; 37 °C, 100 μM FABP5",-7.17 ± 0.19 kcal/mol
same,"ΔGI−S,100μM (intermediately to strongly bound)","FABP5 [2]; 37 °C, 100 μM FABP5",0.956 ± 0.024 kcal/mol
same,Kd,"FABP5 [2]; 37 °C, 100 μM FABP5, 20 μM spin probe, read-out: KD,T,100μM (calculated, totally bound)",8.9 ± 0.34 µM
same,"aiso, component (1) free","FABP5 [2]; 37 °C, EPR simulation",44.1 MHz
same,"aiso, component (2) intermediately bound","FABP5 [2]; 37 °C, EPR simulation",37–42.3 MHz
same,"aiso, component (3) strongly bound","FABP5 [2]; 37 °C, EPR simulation",37 MHz
same,"τc,iso, component (1) free","FABP5 [2]; 37 °C, EPR simulation",0.05–0.07 ns
same,"τc,iso, component (2) intermediately bound","FABP5 [2]; 37 °C, EPR simulation",5.7 ns
same,"τc,iso, component (3) strongly bound","FABP5 [2]; 37 °C, EPR simulation",22.2 ns
same,totally bound fraction,"FABP5 [2]; 37 °C, high FABP5 excess",93%
same,intermediately bound proportion,"FABP5 [2]; FABP5/16-DSA 10/10 μM/μM, 37 °C",61.5%
same,intermediately bound proportion,"FABP5 [2]; FABP5/16-DSA 20/20 μM/μM, 37 °C",72.2%
same,intermediately bound proportion,"FABP5 [2]; FABP5/16-DSA 50/50 μM/μM, 37 °C",80.8%
same,intermediately bound proportion,FABP5 [2]; [9],81%
same,strongly bound component,FABP5 [2]; [9],9.5%
same,increase of intermediately bound component,FABP5 [2]; [5],6 to 8%
same,increase of intermediately bound component,FABP5 [2]; [6],16 to 18%
same,Hill coefficient n,FABP5 [2]; [10],0.852 ± 0.04 and < 1
same,Hill fit k,"FABP5 [2]; Hill fit, totally bound (T), x = c(FABP5)/c(5/16-DSA)",0.315 ± 0.011
same,Hill fit Vmax,FABP5 [2]; [7],98.288 ± 1.318
same,Kd,FABP5 [2]; [8],7.6 ± 0.1 µM
same,Kd,"FABP4; 37 °C, 20 μM FABP4, 20 μM spin probe, read-out: KD,T,20μM (calculated, totally bound)",10 ± 0.75 µM
same,Kd,FABP4; [3],43.6 ± 0.4 µM
same,Kd,"FABP4; 37 °C, 50 μM FABP4, 20 μM spin probe, read-out: KD,T,50μM (calculated, totally bound)",8.5 ± 4.1 µM
same,"ΔGF−I,100μM (free to intermediately bound)","FABP4; 37 °C, 100 μM FABP4",-6.79 ± 0.22 kcal/mol
same,"ΔGF−T,100μM (free to totally bound)","FABP4; 37 °C, 100 μM FABP4",-6.79 ± 0.22 kcal/mol
same,Kd,"FABP4; 37 °C, 100 μM FABP4, 20 μM spin probe, read-out: KD,T,100μM (calculated, totally bound)",16.7 ± 0.44 µM
same,"aiso, component (1) free","FABP4; 37 °C, EPR simulation",44.1 MHz
same,"aiso, component (2) intermediately bound","FABP4; 37 °C, EPR simulation",44.7–48.0 MHz
same,"τc,iso, component (1) free","FABP4; 37 °C, EPR simulation",0.05–0.13 ns
same,"τc,iso, component (2) intermediately bound","FABP4; 37 °C, EPR simulation",4.0–5.8 ns
same,"τc,iso, component (3) strongly bound","FABP4; 37 °C, EPR simulation",22.2 ns
same,Hill coefficient n,FABP4; [10],1.454 and > 1
same,Hill fit k,"FABP4; Hill fit, totally bound (T), x = c(FABP4)/c(5/16-DSA)",0.797 ± 0.047
same,Hill fit Vmax,FABP4; [7],92.29 ± 2.876
same,Kd,FABP4; [8],17.8 ± 0.2 µM
